Patent US9062047B2, “Crystalline form of pyrimido[6,1-A] isoquinolin-4-one compound” (Verona Pharma plc, priority 2010, dated 2015)

How the values were obtained:
[1] = polymorph A (marketed) vs form B; cited from earlier work
[2] = Thermodynamic aqueous solubility by HPLC; type: physicochemical; settings: purified water; for Aqueous solubility: pH 7, 25° C., 24 hours, 20 mg in 1 ml
Method: Thermodynamic Aqueous Solubility by HPLC: Aqueous solubility was determined by suspending sufficient compound in HPLC grade water to give a maximum final concentration of ≧20 mg ml^−1 of the parent compound. The suspension was equilibrated at 25° C. for 24 hours. The suspension was then filtered through a filter into a HPLC vial. The filtrate was then diluted by an appropriate factor. Quantification was executed by HPLC with reference to a standard solution of approximately 0.5 mg ml^−1 in Acetonitrile:Water: (1:1). Different volumes of the standard, diluted and undiluted sample solutions were injected. The solubility was calculated using the peak areas determined by integration of the peak found at the same retention time as the principal peak in the standard injection.
Analysis was performed on an Agilent 1100 series liquid chromatography, equipped with a UV detector (DAD or VWD) @254 nm and using Chemstation Rev.B.01.03 software for data processing. Chemical purity determination by HPLC.
As amorphous material and Form I were in hand, both samples were exposed to a straight forward aqueous solubility study in purified water at 25° C. This experiment was performed as it was unknown whether crystalline or amorphous material was initially isolated in-house during a previous synthesis campaign.
• A suspension of 20 mg of the candidate was mixed in purified water (1 ml, pH 7). The suspension was equilibrated at 25° C. for 24 hours. The suspension was then filtered into an HPLC vial and the filtrate then diluted by an appropriate factor with quantification being executed by HPLC with reference to a standard solution.

[3] = Crash cooling of a melt, LC/HPLC analysis (stability at temperature); type: physicochemical
Method: As there was historical experimental proof of generating amorphous material by heating RPL554 Form I up to 245° C. and rapidly cooling the melt, a repeat of this method was performed (TGA basis) and produced the same, clear, yellow, glass like material.
A proposed glass transition can be observed at approximately 120° C., with no formal recrystallisation observed. While this experiment was running, the sample was submitted for LC analysis, as stability at temperature was known to be a potential issue (observation of TGA). […] The experiment was repeated at a lower temperature (240° C.), this trying to avoid decomposition and thus return a better profile in terms of purity. LC analysis returned a similar profile of very low purity and various secondary products. It was therefore apparent that amorphous material would not be generated in this manner.

[4] = Slurry maturation (heat/cool cycles), XRPD; type: physicochemical; settings: 24 solvents, cycled 20° C./50° C., 8 hour periods, 4 days
Method: 24× Slurry maturations were performed in an attempt to stress the current crystalline solid into undergoing form transformation.
• Some 20 mg of material was agitated in glass tubes in approximately 30 volumes of solvent and cycled between isothermal periods (8 hours) of 20° C. and 50° C. After 4 days of cycling, the solids were filtered off and dried in vacuo at 45° C. prior to analysis by XRPD. All results were compared to the starting material, RPL554 (Form I); see Table 4.

[5] = Applied pressure (100 KN), XRPD and DSC; type: physicochemical; settings: overnight, 10 mg
Method: Applied pressure (100 KN): 10 mg of RPL554 was left in a pressing disc system overnight, forming a fine and uniform disc with a thickness of less than 0.1 mm. The disc was gently ground and analysed by XRPD (FIG. 13).

| Compound | Difference in bio-activity between form A and form B [1] | Aqueous solubility compared with Form I ([2]; 25° C.) | Aqueous solubility [2] [µg/mL] | Product by HPLC analysis after crash cooling a melt ([3]; crash cooled melt, amorphous by XRPD) [%] | Starting material remaining by LC after crash cooled melt ([3]; heated up to 245° C. and rapidly cooled) [%] | Form change on slurry maturation (XRPD) [4] | Form change under applied pressure (XRPD) [5] |
| --- | --- | --- | --- | --- | --- | --- | --- |
| CCCCCCCCCCCCCCCC(=O)OC[C@@H](NC(=O)C(Cl)Cl)[C@H](O)c1ccc([N+](=O)[O-])cc1 [Chloramphenicol-3-palmitate] | eight |  |  |  |  |  |  |
| COc1cc2c(cc1OC)-c1c/c(=N\c3c(C)cc(C)cc3C)n(CCNC(N)=O)c(=O)n1CC2 [JN376F] |  | more soluble than Form I | 30 |  |  |  |  |
| COc1cc2c(cc1OC)-c1c/c(=N\c3c(C)cc(C)cc3C)n(CCNC(N)=O)c(=O)n1CC2 [RPL554, N-{2-[(2E)-2-(mesitylimino)-9,10-dimethoxy-4-oxo-6,7-dihydro-2H-pyrimido[6,1-a]-isoquinolin-3 (4H)-yl]ethyl}urea] |  |  | 1 | < 20 | 26 | extremely resilient to change | generates an amorphous phase |
